Measured values taken from article PMC9578143, “Small-Molecule Ebselen Binds to YTHDF Proteins Interfering with the Recognition of N^6-Methyladenosine-Modified RNAs” (ACS Pharmacology & Translational Science, 2022).
“Also recorded” adds a separate entry of the source.

Legend:
YTHDF1 domain [1] = molecular target: T1, YTHDF1 domain (Homo sapiens, UniProt Q9BYJ9); assay: Dynamic mass redistribution (DMR), label-free; conditions: immobilized YTHDF1 domain, binding at equilibrium
T1 construct: The human YTHDF1 YTH domain (amino acids 365–554, PDB: 4RCJ); host or cells: E. coli BL21(DE3)
T1 sequence (Q9BYJ9 365-554): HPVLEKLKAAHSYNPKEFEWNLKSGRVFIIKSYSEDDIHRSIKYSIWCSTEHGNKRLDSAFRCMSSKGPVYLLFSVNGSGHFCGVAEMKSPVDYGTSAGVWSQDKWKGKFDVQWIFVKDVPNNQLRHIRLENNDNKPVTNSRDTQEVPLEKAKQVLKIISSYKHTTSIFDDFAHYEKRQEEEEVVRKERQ
Experimental: The protein was immobilized in a final volume of 15 μL/well of a 50 μg/mL solution in 20 mM sodium acetate buffer, pH 6, onto the surface of label-free microplates by amine-coupling chemistry. Different concentrations of ebselen (300 nM to 50 μM) were added to the plate and the mass of the molecular complex was measured every minute for 1 h. […]
probe with the YTH domain of YTHDF1 calculated with the DMR. rYTH was immobilized to the wells with amino-coupled chemistry and different concentrations of RNA were added to the plate.
Measurements were performed before adding the RNA, in order to define a baseline, and after the addition. Final response (pm) was obtained by subtracting to the last measurement the baseline.
Signal for each well was obtained by subtracting the signal of a reference area with the protein coated to an uncoated one. Data were fitted according to a four-parameter nonlinear regression […]
(1 picture or pasted object on this page, not shown here)

[2] = tested on: m6A-mRNAs (CREBBP, YTHDF2, GATA2, HNRNPF) in PC-3 cells; assay: m6A mRNA stability measurement with actinomycin D; assay type: cell-based, human; conditions: 4 h co-treatment with actinomycin D, versus DMSO, listed as ebselen
Experimental: PC-3 cells were plated on a six-well dish. At 70–80% confluency, cells were treated with […] actinomycin D or vehicle (DMSO) to inhibit transcription in combination with 50 μM ebselen for 4 h before collection. As a control, cells were treated with actinomycin D or vehicle (DMSO) for 4 h. Total RNA was isolated from cells using TRIzol according to the manufacturer’s instructions. For each condition, the same amount of total RNA was reverse-transcribed to cDNA (2 μg) using the SuperScript IV First-Strand kit. Oligo-dT primers were used during the cDNA synthesis step. This allowed us to selectively convert to cDNA the amount of intact RNA still present in cells upon actinomycin D treatment while avoiding the conversion of fragmented RNA to cDNA. qRT-PCR experiments were performed in duplicates and normalized on a stable mRNA, GAPDH.

YTHDF1 domain [3] = molecular target: T1, YTHDF1 domain; assay: High-throughput screen, tryptophan quenching, Z-score; assay type: binding; conditions: 5 μM protein, compounds at 10 μM
Experimental: A Z factor of 0.53 was obtained. The high-throughput screen was performed by using an automatic liquid handling (Freedom EVO, Tecan), filling black 384-well plates with 15 μL of 5 μM protein in 20 mM Tris (pH 7.5), 150 mM NaCl, and 10% glycerol, and then by adding the library of compounds at a final concentration of 10 μM. Fluorescence was measured immediately after compound addition. The library used was the Spectrum Collection (Microsource Discovery System, Inc.), composed of 2560 compounds, of whom 60% are clinically used drugs, 25% natural products, and 15% other bioactive molecules. The Z-score was calculated as (X – μp)/σp, where X is the fluorescence intensity of the protein. Candidate molecules were considered all of the ones that were under the threshold of Z = −3, while all of the ones over that value were discarded.

SMILES: O=c1c2ccccc2[se]n1-c1ccccc1 [Compound 1, 2-phenyl-1,2-benzisoselenazol-3(2H)-one]
- EC50 (YTHDF1 domain [1]): 3.22 µM
- Stability of methylated mRNAs (in words) [2]: increase in mRNA stability; also recorded: increased the stability of methylated genes
- Mean(FI.z-score) (YTHDF1 domain [3]): -3.819
